Non-standard residues stand in square brackets, D forms with d. Residues, ends and D or L forms follow the SMILES beside them. NFurfurylGly = O=C(O)CNCc1ccco1; Gly(N-CH2CH2OH) = O=C(O)CNCCO; Nphe = O=C(O)CNCc1ccccc1; NPrGly = CCCNCC(=O)O
Assays:
[1] = tested on: human primary CD4+ T cells; test: Toxicity, cell death by propidium iodide staining and flow cytometry, primary CD4+ T cells; format: cell-based
Method: (§1) The toxicity of Compound 2 was studied at 100 μM and 200 μM concentrations in Jurket cells (FIG. 5, left), BJAB B cells (FIG. 5, middle left), human primary CD4^+ T cells (FIG. 5, middle right), and human primary monocytes (FIG. 5, right). Cell death was assessed by propidium iodide staining and flow cytometry. […] Treatment with cycloheximide (CHX) (Sigma Aldrich), a generic inhibitor of translation, was used as a positive control for cell death induction.

Jurket cells = test: Toxicity, cell death by propidium iodide staining and flow cytometry, Jurkat; format: cell-based
Method: as §1

BJAB B cells = test: Toxicity, cell death by propidium iodide staining and flow cytometry, BJAB; format: cell-based
Method: as §1

c-Rel = molecular target: T1, c-Rel (Homo sapiens, UniProt Q04864); test: Nuclear translocation of c-Rel, Western blot of cytoplasmic and nuclear extracts; format: cell-based; conditions: FIG. 6 top
T1 construct: endogenous in cells
T1 sequence (Q04864 1-619): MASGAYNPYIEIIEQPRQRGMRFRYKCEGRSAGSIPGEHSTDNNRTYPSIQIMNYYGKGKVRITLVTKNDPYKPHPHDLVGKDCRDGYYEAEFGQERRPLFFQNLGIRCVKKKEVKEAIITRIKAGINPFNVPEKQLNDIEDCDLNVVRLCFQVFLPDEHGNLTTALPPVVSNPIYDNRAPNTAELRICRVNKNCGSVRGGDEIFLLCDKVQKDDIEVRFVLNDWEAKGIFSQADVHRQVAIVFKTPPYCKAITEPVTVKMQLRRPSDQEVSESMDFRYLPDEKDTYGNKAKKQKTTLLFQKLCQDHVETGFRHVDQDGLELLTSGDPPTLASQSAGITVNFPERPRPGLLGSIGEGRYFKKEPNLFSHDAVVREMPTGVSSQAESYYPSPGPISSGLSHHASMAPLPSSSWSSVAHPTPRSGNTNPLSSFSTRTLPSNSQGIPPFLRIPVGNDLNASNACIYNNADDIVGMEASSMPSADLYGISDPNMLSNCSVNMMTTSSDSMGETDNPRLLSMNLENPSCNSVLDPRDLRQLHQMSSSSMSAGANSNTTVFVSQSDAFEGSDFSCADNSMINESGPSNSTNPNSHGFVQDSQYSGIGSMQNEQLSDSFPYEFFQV
Method: Activation of c-Rel involves signal-induced translocation of c-Rel from the cytoplasm to the nucleus and its subsequent DNA binding and gene expression. Thus, the effect of treatment with Compound 2 and Compound 3 (comparative) on nuclear translocation of c-Rel were examined. Cytoplasmic and nuclear extracts were prepared and Western blotting was performed as described in DeJesus, T. J. and Ramakrishnan, P. “NF-kappaB c-Rel Dictates the Inflammatory Threshold by Acting as a Transcriptional Repressor.” iScience 23, 100876 (2020).

O-GlcNAcylated c-Rel [2] = molecular target: T2, O-GlcNAcylated c-Rel (Homo sapiens, UniProt Q04864); test: TCR-induced O-GlcNAcylated-c-Rel-dependent gene expression in primary CD4+ T cells; format: cell-based; conditions: 100 μM
T2 construct: endogenous in cells; host or cells: primary CD4+ T cells from human PBMC
T2 sequence (Q04864 2-587 isoform Q04864-2): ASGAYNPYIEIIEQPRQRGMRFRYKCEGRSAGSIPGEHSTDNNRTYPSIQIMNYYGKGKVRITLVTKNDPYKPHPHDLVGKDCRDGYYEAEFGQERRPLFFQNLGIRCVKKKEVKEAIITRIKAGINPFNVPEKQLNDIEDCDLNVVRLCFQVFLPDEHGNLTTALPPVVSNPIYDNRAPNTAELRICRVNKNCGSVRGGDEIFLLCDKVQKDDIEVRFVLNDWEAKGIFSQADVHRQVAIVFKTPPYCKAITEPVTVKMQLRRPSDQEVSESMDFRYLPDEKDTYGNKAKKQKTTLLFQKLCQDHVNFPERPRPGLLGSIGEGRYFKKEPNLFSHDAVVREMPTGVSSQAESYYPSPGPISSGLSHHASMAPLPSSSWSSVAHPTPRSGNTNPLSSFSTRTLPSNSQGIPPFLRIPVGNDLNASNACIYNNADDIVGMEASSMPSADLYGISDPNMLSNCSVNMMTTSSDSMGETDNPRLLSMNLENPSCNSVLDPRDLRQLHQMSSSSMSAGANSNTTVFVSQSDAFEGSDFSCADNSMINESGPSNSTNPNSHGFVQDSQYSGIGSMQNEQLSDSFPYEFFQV
Method: The effect of Compound 2 was studied in primary CD4^+ T cells isolated from human peripheral blood mononuclear cells. CD4+ T cells were […] were isolated by magnetic sorting (Miltenyi Biotec) and cultured in supplemented RPMI medium. Cells were treated with 100 μM of Compound 2 twice—at the start of the experiment and at 24 hrs.

Leukemia K562 cells = test: Cell death in leukemia K562 cells; format: cell-based; conditions: Compound 2 at 100 μM; compared with OSMI1 at 50 μM; FIG. 8
Method: The effect of Compound 2 on […] cells was studied. Leukemia K562 cells were treated with HBP inhibitor OSMI1 (50 μM) or Compound 2 (100 μM). Scrambled peptoid Compound 3 was used as a control.

O-GlcNAcylated c-Rel [3] = molecular target: T3, O-GlcNAcylated c-Rel (Homo sapiens, UniProt Q04864); test: TCR-induced O-GlcNAcylation-dependent GMCSF and IL-2 expression in Jurkat T cells; format: cell-based; conditions: for expression of GMCSF / expression of IL-2: Compound 2 100 μM and 200 μM, 16 hours, FIG. 3
T3 construct: endogenous in cells; host or cells: Jurkat T cells
T3 sequence (Q04864 1-619): T1 sequence (Q04864 1-619)
Method: It is further known that a mutation of c-Rel at S350 completely abrogates T cell receptor (TCR)-induced O-GlcNAcylation-dependent expression of GMCSF and IL-2 (Ramakrishnan, 2013). Thus, the specific inhibition of c-Rel O-GlcNAcylation by Compound 2 was studied. Jurkat cells were grown in RPMI medium at 1×10^6 cells/2 mL. The cells were treated with compound 2 (100 μM and 200 μM) for 16 hours. Cell death was assessed by propidium iodide (Biolegend) staining and flow cytometry. Following treatment with Compound 2, the resulting expression of GMCSF and IL-2 was measured. […] Further, treatment with Compound 2 specifically affected only the O-GlcNAcylation-dependent enhancement of IL-2 and GMCSF expression.
The range of concentrations at which Compound 2 is effective in suppression O-GlcNAcylation c-Rel function was studied. Jurket cells were exposed to Compound 2 in concentrations of 2 mM, 500 μM, 200 μM, 100 μM, 50 μM and 10 μM peptoid on TCR-induced GMCSF expression.
The effect of the scrambled peptoid, Compound 3, was also studied (FIG. 3, bottom right panel).

human primary monocytes = test: Toxicity, cell death by propidium iodide staining and flow cytometry, primary monocytes; format: cell-based; conditions: 100 μM and 200 μM, 40 hours post-treatment
Method: as §1

B cells (BJAB) = test: Non-specific activity in B cells; format: cell-based
Method: (§2) Compound 2 was further studied in B cells (BJAB) and macrophages (RAW 264.7). BJAB cells were grown in RPMI medium and RAW 264.7 cells were grown in DMEM medium supplemented with 100 U/mL penicillin/streptomycin, 4 mM L-glutamine and 10% fetal bovine serum.

macrophages (RAW 264.7) = test: Non-specific activity in macrophages; format: cell-based; conditions: RAW 264.7 cells
Method: as §2

O-GlcNAcylated c-Rel [4] = molecular target: T3, O-GlcNAcylated c-Rel; test: Oligonucleotide pull down assay, c-Rel binding to CD28RE DNA; conditions: Jurket cells, anti-CD3/CD28 and Thiamet-G; Compound 2 at 50 μM
Method: Oligonucleotide pull down assays were performed to examine whether Compound 2 binds to O-GlcNAcylated c-Rel and thus, competitively prevents its binding to CD28RE. Jurket cells were treated with anti-CD3/CD28 antibodies to trigger TCR activation and c-Rel nuclear translocation. Cells were contacted with Thiamet-G (an O-GlcNAse inhibitor) (Sigma Aldrich) to enhance cellular O-GlcNAcylation.

[5] = human primary T-cells, treated twice (start and 24 hrs)

## C[C@@H]1C[C@@H]([C@H](O)CC2CC(=O)NC(=O)C2)C(=O)[C@@H](C)C1 [CHX, cycloheximide, reference compound]
[1]; human primary T cells, 5 μg/mL, 16 hours post-treatment
  cell death, positive control: significant cell death
Jurket cells; Jurkat cells, 5 μg/mL, 16 hours post-treatment
  cell death, positive control: significant cell death
BJAB B cells; 5 μg/mL, 16 hours post-treatment
  cell death, positive control: significant cell death

## CCCNCC(=O)N(CC(=O)N(CC(=O)N(CCO)CC(N)=O)Cc1ccccc1)Cc1ccco1 [Compound 2] (H-[NPrGly][NFurfurylGly][Nphe][Gly(N-CH2CH2OH)]-NH2)
c-Rel
  change in nuclear c-Rel levels: no significant change
O-GlcNAcylated c-Rel [2]; [5]
  TCR-induced O-GlcNAcylation-dependent increase in expression of GMCSF: effectively and significantly decreased
  TCR-induced O-GlcNAcylation-dependent increase in expression of IL-2: effectively and significantly decreased
O-GlcNAcylated c-Rel [2]; primary T cells
  TCR-induced expression level of GMCSF, IL-2 and other NF-kappaB-induced genes such as A20 and I-kappa-B-alpha: did not block
Leukemia K562 cells
  K562 cell death: nearly comparable to that caused by known OGT inhibitor OSMI1
O-GlcNAcylated c-Rel [3]
  TCR-induced expression levels of IL-2 and GMCSF (not O-GlcNAcylation-dependent): did not block
  expression of GMCSF: significantly decreased
  expression of IL-2: significantly decreased
O-GlcNAcylated c-Rel [3]; 200 μM
  O-GlcNAcylation-dependent GMCSF expression: near complete suppression
O-GlcNAcylated c-Rel [3]; 500 μM and 2 mM
  GMCSF expression levels at higher concentrations: did not further decrease
Human primary monocytes
  cell death: non-significant cell death
[1]; human primary CD4+ T cells, 100 μM and 200 μM, 40 hours post-treatment
  cell death: non-significant cell death
B cells (BJAB)
  non-specific activity: does not exhibit any non-specific activity
Jurket cells; Jurket cells, 100 μM and 200 μM, 40 hours post-treatment
  cell death: non-significant cell death
Macrophages (RAW 264.7)
  non-specific activity: does not exhibit any non-specific activity
O-GlcNAcylated c-Rel [4]
  binding of c-Rel to CD28RE DNA: reduced the binding of c-Rel
BJAB B cells; 100 μM and 200 μM, 40 hours post-treatment
  cell death: non-significant cell death

## CCCN(CC(=O)N(CC(N)=O)Cc1ccccc1)C(=O)CN(CCO)C(=O)CNCc1ccco1 [Compound 3] (H-[NFurfurylGly][Gly(N-CH2CH2OH)][NPrGly][Nphe]-NH2)
c-Rel
  change in nuclear c-Rel levels: no significant change
Leukemia K562 cells
  K562 cell death: no significant cell death
O-GlcNAcylated c-Rel [3]; FIG. 3 bottom right
  inhibitory effect on GMCSF expression, scrambled peptoid control: no inhibitory effect
O-GlcNAcylated c-Rel [4]
  binding of c-Rel to CD28RE DNA: did not block the binding of c-Rel

## COc1ccccc1[C@@H](NS(=O)(=O)c1ccc2[nH]c(=O)ccc2c1)C(=O)N(Cc1ccco1)Cc1cccs1 [OSMI1, reference compound]
O-GlcNAcylated c-Rel [3]
  expression of GMCSF: well below the TCR-induced levels
  expression of IL-2: well below the TCR-induced levels
